Data on nine compounds can be found in ChEMBL document CHEMBL1140230, “Discovery of begacestat, a Notch-1-sparing gamma-secretase inhibitor for the treatment of Alzheimer's disease” (J Med Chem, 2008).

The nature of series [1]: Selectivity ratio of EC50 for gamma-secretase to EC50 for mouse notch processing.
Series [2] is described as follows: Inhibition of gamma-secretase expressed in CHO cells expressing human recombinant APP assessed as amyloid beta40 […]. Type of series: cell-based.
A short description of series [3]: Metabolic stability in rat microsomes assessed as half life. The class given is ADME, Microsome.
A short description of series [4]: Apparent permeability from apical to basolateral side in human Caco-2 cells. The class given is ADME, cell-based. (In general: Caco-2 cells form a polarised layer with tight junctions and transporters.)
A short description of series [5]: Apparent permeability from basolateral to apical side in human Caco-2 cells. The class given is ADME, cell-based.
A short description of series [6]: Solubility in Phosal PG50/Tween-80/water. Type of series: physicochemical.
A short description of series [7]: Membrane permeability by PAMPA assay. Type of series: ADME. As to conditions: read-out: permeability. In general terms: The PAMPA barrier holds no transporters, so it reflects passive diffusion.
Series [8] concerns Mus musculus. Briefly: Reduction of amyloid beta42 level in Tg2576 mouse brain at 100 mg/kg, po after 4 hrs. The class given is functional. Details: scale not given: the % may be the effect or the level left.
Series [9] has as its system Mus musculus. As to the kind of experiment: Reduction of amyloid beta40 level in Tg2576 mouse brain at 100 mg/kg, po after 4 hrs. The class given is functional. More on the design: scale not given: the % may be the effect or the level left.
Series [10] in a line: Metabolic stability in Tg2576 mouse microsomes assessed as half life. The class given is ADME, Microsome.
A short description of another series: in vitro. As to conditions: human, microsomes.
Series [11] in a line: Ratio of drug level in brain to plasma in Tg2576 mouse model. Type of series: ADME.
Series [12] is described as follows: Dissociation constant, pKa of the compound. Type of series: physicochemical.
Series [13] deals with Mus musculus. As to the kind of experiment: Reduction of amyloid beta42 level in Tg2576 mouse brain at 5 mg/kg, po after 4 hrs. The class given is functional. More on the design: scale not given: the % may be the effect or the level left.
Series [14] is described as follows: Metabolic stability in dog microsomes assessed as half life. Type of series: ADME, Canis lupus familiaris, Microsome.
The subject of series [15] is Mus musculus. Briefly: Reduction of amyloid beta40 level in Tg2576 mouse brain at 5 mg/kg, po after 4 hrs. The class given is functional. More on the design: scale not given: the % may be the effect or the level left.
Series [16] can be described thus: Metabolic stability in monkey microsomes assessed as half life. The class given is ADME, Macaca mulatta, Microsome. As to conditions: rhesus monkey.
Series [17] has as its system Mus musculus. As to the kind of experiment: Reversal of cognitive deficits in contextual fear conditioning in Tg2576 mouse model at 10 mg/kg, po. Details: dose 10 mg/kg. The class given is functional, organism-based.
Series [18] deals with Mus musculus. Briefly: Reduction of amyloid beta42 level in Tg2576 mouse brain at 10 mg/kg, po after 4 hrs. More on the design: scale not given: the % may be the effect or the level left. Type of series: functional.
The species named for series [19] is Mus musculus. As to the kind of experiment: Reversal of cognitive deficits in contextual fear conditioning in Tg2576 mouse model. Type of series: functional, organism-based.

Molecules are shown by their SMILES. In brackets after ≈: the same amount, converted by molar mass. Activity calls are given as the source filed them. The rule behind the calls is not given here.

Description for in vitro: Metabolic stability in human microsomes assessed as half life

For orientation: IC50 means the concentration needed to halve the response being measured. As usually defined, the half-life is the time in which the quantity being followed falls by half. By Papp A→B is commonly meant the apparent permeability from the apical to the basolateral side of a cell layer. What is called Papp B→A is the apparent permeability from the basolateral to the apical side of a cell layer. What is called solubility is the dissolved amount per volume that the medium holds. As usually defined, the Kp is the ratio of the level in a tissue or fluid to that in plasma or blood. A word on the pKa: it is the negative logarithm of the acid dissociation constant. Turning to `CCC(CC)[C@@H](CO)NS(=O)(=O)c1ccc(Cl)s1` [GSI-136], the Ratio EC50 in series [1] turned out to be 10. Besides, the half-maximal inhibitory concentration (IC50) in [2] is 25 nM. In addition, the half-life in series [3] came to 1 min; in series [10] it was 2 min; in “in vitro”, 8 min. Moreover, the Papp A→B in series [4] is 50 ×10⁻⁶ cm/s. In addition, the basolateral-to-apical permeability (Papp B→A) in series [5] was 43 ×10⁻⁶ cm/s. The compound further returned a solubility in series [6] of 6700 µg/mL (≈ 21.5 mM). In series [7], the Papp was determined as 12.5 ×10⁻⁶ cm/s. The Activity in the series on Mus musculus [8] and in the series with Mus musculus [9] was 25% throughout. In [11], the Kp amounted to 2. The compound further came in with a pKa in series [12] of 9.6.
In the case of `O=S(=O)(N[C@H](CO)C(CC(F)(F)F)CC(F)(F)F)c1ccc(Cl)s1`, the Ratio EC50 in series [1] stood at 15. In addition, the Activity in the series with Mus musculus [13] was 22%; with Mus musculus [15], 27%. Besides, the half-life in [14] came out at 13 min; in [3] it was 8 min; in [16], 5 min; in series [10], 24 min; in “in vitro”, 8 min. In addition, the concentration for half-maximal inhibition (IC50) in series [2] was found to be 16 nM. The pKa in [12] came to 8.9.
As to `O=S(=O)(N[C@H](CO)C(C(F)(F)F)C(F)(F)F)c1ccc(Cl)s1` [BEGACESTAT], in [1], the Ratio EC50 was found to be 14. In addition, the Activity amounted to 25% in the series with Mus musculus [13] and 37% in the series on Mus musculus [15]. Moreover, the half-life in series [14] was 31 min; in series [3], 3 min; in series [16], 26 min; in [10] it was 48 min; in the series “in vitro”, > 90 min. The IC50 in series [2] was determined as 15 nM. In addition, the pKa in [12] came out at 8.3.
With `O=S(=O)(N[C@@H](CO)C(C(F)(F)F)C(F)(F)F)c1ccc(Cl)s1`, the Ratio EC50 in series [1] was determined as 3.7. The IC50 in [2] stood at 10700 nM.
The corresponding values for `CCC(CC)[C@@H](CO)NS(=O)(=O)c1ccc(Cl)cc1` are 14 and 294 nM.
Regarding `CC[C@H](C)[C@@H](CO)NS(=O)(=O)c1ccc(Cl)cc1`, in the series on Mus musculus [17], the outcome was Active. For the same compound, in [2], the half-inhibitory concentration (IC50) came out at 5450 nM. Further, the Activity with Mus musculus [18] came to 25%.
The corresponding values for `CC[C@H](C)[C@@H](CO)NS(=O)(=O)c1ccc(Br)cc1` are “Active”, 2210 nM and 25%.
With `CC[C@H](C)[C@@H](CO)NS(=O)(=O)c1ccc(Cl)s1`, in series [2], the 50% inhibitory concentration (IC50) was 297 nM.
Turning to `C[C@H](NC(=O)Cc1cc(F)cc(F)c1)C(=O)N[C@H](C(=O)OC(C)(C)C)c1ccccc1`, in the series listed under Mus musculus [19], the outcome was Active. Moreover, the Activity with Mus musculus [8] and with Mus musculus [9] was 25% each time.
